# Assay results: patent US20170312260A1 (LAUNX BIOMEDICAL CO., LTD., priority 2014, published 2017)
# Values joined by “and” are separate entries in the source; they are usually repeats but may differ in a detail not shown here. Equal values may be shown once. Read-outs that look alike come from different tables or passages of the source.
# Tests used:
# [1] = tested on: gastric cancer cells (AGS); assay: Animal model test, subcutaneous tumor in nude mice; format: in vivo, female mice (BALB/cAnN.Cg-Foxn1^nu/CrlNarl); settings: for tumor volume growth, average / tumor volume, average: average of mice; for tumor longest length / tumor volume / tumor volume growth / tumor width: single mice A-C
# Method: Animal Model Test of […] with Dose 100 mg/kg/Day and 200 mg/kg/day
# In this invention, the female mice were (BALB/cAnN.Cg-Foxn1^nu/CrlNarl) purchased from National Laboratory Animal Center (Taiwan)). The weight of the mice were 21±1 g. These mice were subcutaneously injected with gastric cancer cells (AGS) and then put these mice into different cages at random. The drug test experiment was divided into three groups, include “normal control group”, “low dose group (100 mg/kg/day)”, and “high dose group (200 mg/kg/day)”. These mice were then injected test drug intraperitoneally once daily […]. The tumor sizes and body weight were measured twice a week. The tumor sizes were measured and calculated by formula: (L×W^2)/2. L represents the tumor longest length. W represents the tumor shortest diameter.
# [2] = tested on: MKN-45 (Gastric Adenocarcinoma); assay: WST-1 cell viability analysis, MKN-45; format: cell-based; settings: Homo sapiens, MKN-45, 10 μM, 72 hours, read-out: viability (survival rate) of MKN-45 cells
# Method: (§1) The cell numbers were counted and reseed as 2×10^6 in cell culture plate/flask. Then, the culture medium were added to a volume of 10 ml, and the cells were cultured for 2-3 days. Then, the cells were suspended for loading into 96-well plates. The number of cells was 3000 and the volume of the culture medium was 100 μl each well.
# (§2) Removing the original culture medium from 96-well plate. Then add 100 μl of commercially drug at a concentration of 10 μM per well. After 72 hours, add the diluted WST-1 reagent to the well with 100 μl/well, and the diluted WST-1 reagent was acquired from the dilution of 9:1 medium and WST-1 stock reagent. Finally, the total volume of each well was 200 μl/well. Culture the 96-well plate at 37° C. for 30 to 90 minutes. Detecting and calculate the survival rate of each cancer cells with an ELISA reader at OD450 nm.
# [3] = tested on: pancreatic cancer cell line AsPC-1; assay: WST-1 cell viability analysis, AsPC-1; format: cell-based; settings: Homo sapiens
# Method: as §1, §2
# [4] = tested on: LoVo(Colorectal Adenocarcinoma); assay: WST-1 cell viability analysis, LoVo; format: cell-based; settings: Homo sapiens
# Method: as §1, §2
# [5] = tested on: ovarian cancer cell line TOV-21G; assay: WST-1 cell viability analysis, TOV-21G; format: cell-based; settings: Homo sapiens, TOV21G
# Method: as §1, §2
# [6] = tested on: C-33A (Cervical carcinoma); assay: WST-1 cell viability analysis, C-33A; format: cell-based; settings: Homo sapiens, 72 hours, read-out: viability (survival rate) of C-33A cells
# Method: as §1, §2
# [7] = tested on: colorectal cancer cell line HCT116-wt; assay: WST-1 cell viability analysis, HCT116-wt; format: cell-based; settings: 72 hours, read-out: viability (survival rate) of HCT116-wt cells
# Method: as §1, §2
# cervical cancer cells = assay: Summary of cell viability, cervical cancer; format: cell-based; settings: 72 hours, summary for cervical cancer, read-out: Inhibitory effect, cervical cancer
# Method: as §1, §2
# (§3) As a result in the experiments of the present invention.
# [8] = tested on: Hep3B (hepatocellular carcinoma); assay: WST-1 cell viability analysis, Hep3B; format: cell-based; settings: Homo sapiens
# Method: as §1, §2
# gastric cancer cells = assay: Summary of cell viability, gastric cancer; format: cell-based; settings: 72 hours, summary over the gastric cancer cell lines, read-out: Inhibitory effect, gastric cancer
# Method: as §1, §2, §3
# [9] = tested on: 786-O (Renal adenocarcinoma); assay: WST-1 cell viability analysis, 786-O; format: cell-based; settings: Homo sapiens
# Method: as §1, §2
# [10] = high dose (200 mg/kg/day) i.p., Fifth measurement
# [11] = high dose (200 mg/kg/day) i.p., First measurement
# [12] = high dose (200 mg/kg/day) i.p., First measurement, 200 mg/kg/day
# [13] = high dose (200 mg/kg/day) i.p., Fourth measurement
# [14] = high dose (200 mg/kg/day) i.p., Second measurement
# [15] = high dose (200 mg/kg/day) i.p., Second measurement, 200 mg/kg/day
# [16] = high dose (200 mg/kg/day) i.p., Third measurement
# [17] = low dose (100 mg/kg/day) i.p., Fifth measurement
# [18] = low dose (100 mg/kg/day) i.p., First measurement
# [19] = low dose (100 mg/kg/day) i.p., First measurement, 100 mg/kg/day
# [20] = low dose (100 mg/kg/day) i.p., Fourth measurement
# [21] = low dose (100 mg/kg/day) i.p., Second measurement
# [22] = low dose (100 mg/kg/day) i.p., Second measurement, 100 mg/kg/day
# [23] = low dose (100 mg/kg/day) i.p., Third measurement
# [24] = low dose (100 mg/kg/day) i.p., Third measurement, 100 mg/kg/day
smiles,measurement,setting,value
CC1=C(C(=O)OC(C)C)C(c2cccc([N+](=O)[O-])c2)C(C(=O)OC2CN(C(c3ccccc3)c3ccccc3)C2)=C(N)N1 (centres unmarked) [Azelnidipine],"tumor volume growth, average",[1]; [10],0 mm^3
same,"tumor volume, average",[1]; [10],0 mm^3
same,tumor longest length,[1]; [10],0 mm
same,tumor volume,[1]; [10],0 mm^3
same,tumor volume growth,[1]; [10],0 mm^3
same,tumor width,[1]; [10],0 mm
same,"tumor volume growth, average",[1]; [11],25.67 mm^3
same,"tumor volume, average",[1]; [11],25.67 mm^3
same,tumor longest length,[1]; [12],4 mm and 6 mm
same,tumor volume,[1]; [12],18 mm^3 and 27 mm^3 and 32 mm^3
same,tumor volume growth,[1]; [12],18 mm^3 and 27 mm^3 and 32 mm^3
same,tumor width,[1]; [12],3 mm and 4 mm
same,"tumor volume growth, average",[1]; [13],−50 mm^3
same,"tumor volume, average",[1]; [13],0 mm^3
same,tumor longest length,[1]; [13],0 mm
same,tumor volume,[1]; [13],0 mm^3
same,tumor width,[1]; [13],0 mm
same,"tumor volume growth, average",[1]; [14],57.67 mm^3
same,"tumor volume, average",[1]; [14],83.33 mm^3
same,tumor width,[1]; [14],5 mm
same,tumor longest length,[1]; [15],7 mm and 6 mm
same,tumor volume,[1]; [15],87.5 mm^3 and 75 mm^3
same,tumor volume growth,[1]; [15],69.5 mm^3 and 48 mm^3 and 55.5 mm^3
same,"tumor volume growth, average",[1]; [16],−33.3333 mm^3
same,"tumor volume, average",[1]; [16],50 mm^3
same,"inhibition of tumor growth, high dose compared with low dose (in words)","[1]; high dose, FIG. 3",better effect to inhibit tumor growth
same,"tumor volume growth, average",[1]; [17],2.667 mm^3
same,"tumor volume, average",[1]; [17],22 mm^3
same,"tumor volume growth, average",[1]; [18],176.3333 mm^3
same,"tumor volume, average",[1]; [18],176.3333 mm^3
same,tumor longest length,[1]; [19],8 mm and 6 mm and 7 mm
same,tumor width,[1]; [19],8 mm and 7 mm and 6 mm
same,"tumor volume growth, average",[1]; [20],−88 mm^3
same,"tumor volume, average",[1]; [20],19.33 mm^3
same,"tumor volume growth, average",[1]; [21],−77.5 mm^3
same,"tumor volume, average",[1]; [21],98.83 mm^3
same,tumor longest length,[1]; [22],7 mm and 6 mm and 5 mm
same,tumor width,[1]; [22],6 mm and 5 mm
same,"tumor volume growth, average",[1]; [23],0 mm^3
same,"tumor volume, average",[1]; [23],98.83 mm^3
same,tumor volume growth,[1]; [23],0 mm^3
same,tumor longest length,[1]; [24],7 mm and 6 mm and 5 mm
same,tumor width,[1]; [24],6 mm and 5 mm
same,inhibition effect on tumor cells (in words),"[1]; low dose and high dose, FIG. 2",significant inhibition effect
same,tumor volume (in words),"[1]; low dose and high dose, FIG. 3",reduce the tumor volume
same,tumor volume growth (in words),"[1]; low dose and high dose, FIG. 3",effectively slow down the tumor volume growth
same,viability at 10 µM,[2]; run 0510-10 min,174%
same,viability at 10 µM,[2]; run 0512-10 min,184%
same,viability at 10 µM,[2]; run 0515-10 min,68.5%
same,viability at 10 µM,[2]; run 0517-10 min,130%
same,viability at 10 µM,"[3]; ASPC1, 10 μM, 72 hours, run 1-4-30 min, read-out: viability (survival rate) of AsPC-1 cells",58.6%
same,viability at 10 µM,"[3]; ASPC1, 10 μM, 72 hours, run 1-7-3-30 min, read-out: viability (survival rate) of AsPC-1 cells",104%
same,viability at 10 µM,"[3]; ASPC1, 10 μM, 72 hours, run 1-7-4-30 min, read-out: viability (survival rate) of AsPC-1 cells",46.1%
same,viability at 10 µM,"[3]; ASPC1, 10 μM, 72 hours, run 1-7-7-30 min, read-out: viability (survival rate) of AsPC-1 cells",13.7%
same,viability at 10 µM,"[3]; ASPC1, 72 h, 10 μM, average of 4 tests, read-out: Average viability of AsPC-1 cells",55.6%
same,viability at 10 µM,"[4]; 72 h, average of 4 tests, read-out: Average viability of LoVo cells",59.9%
same,viability at 10 µM,"[4]; 72 hours, run 0616-10 min, read-out: viability (survival rate) of LoVo cells",49.6%
same,viability at 10 µM,"[4]; 72 hours, run 0619-10 min, read-out: viability (survival rate) of LoVo cells",67.2%
same,viability at 10 µM,"[4]; 72 hours, run 0621-10 min, read-out: viability (survival rate) of LoVo cells",62.3%
same,viability at 10 µM,"[4]; 72 hours, run 0623-10 min, read-out: viability (survival rate) of LoVo cells",60.3%
same,viability at 10 µM,"[5]; 72 h, average of 4 tests, read-out: average viability of TOV-21G cells",27.2%
same,viability at 10 µM,"[5]; 72 hours, run 4-30 min, read-out: viability (survival rate) of TOV-21G cells",60.1%
same,viability at 10 µM,"[5]; 72 hours, run 7-3-30 min, read-out: viability (survival rate) of TOV-21G cells",15.6%
same,viability at 10 µM,"[5]; 72 hours, run 7-4-30 min, read-out: viability (survival rate) of TOV-21G cells",13.3%
same,viability at 10 µM,"[5]; 72 hours, run 7-7-30 min, read-out: viability (survival rate) of TOV-21G cells",19.6%
same,viability at 10 µM,[6]; run 0524-10 min,142%
same,viability at 10 µM,[6]; run 0526-10 min,111%
same,viability at 10 µM,[6]; run 0529-10 min,123%
same,viability at 10 µM,[6]; run 0531-10 min,117%
same,viability at 10 µM,[7]; run 0602-30 min,70.7%
same,viability at 10 µM,[7]; run 0605-10 min,146%
same,viability at 10 µM,[7]; run 0607-10 min,159%
same,viability at 10 µM,[7]; run 0609-10 min,69.3%
same,viability at 10 µM,cervical cancer cells,87%
same,viability at 10 µM,"[8]; 72 h, average of 4 tests, read-out: Average viability of Hep3B cells",98.6%
same,viability at 10 µM,"[8]; 72 hours, run 0612-20 min, read-out: viability (survival rate) of Hep3B cells",114%
same,viability at 10 µM,"[8]; 72 hours, run 0614-20 min, read-out: viability (survival rate) of Hep3B cells",91.5%
same,viability at 10 µM,"[8]; 72 hours, run 0616-20 min, read-out: viability (survival rate) of Hep3B cells",97.9%
same,viability at 10 µM,"[8]; 72 hours, run 0619-20 min, read-out: viability (survival rate) of Hep3B cells",90.7%
same,viability at 10 µM,gastric cancer cells,115%
same,viability at 10 µM,"[9]; 786-0, 10 μM, 72 hours, run 0524-10 min, read-out: viability (survival rate) of 786-O cells",88.6%
same,viability at 10 µM,"[9]; 786-0, 10 μM, 72 hours, run 0526-10 min, read-out: viability (survival rate) of 786-O cells",79.7%
same,viability at 10 µM,"[9]; 786-0, 10 μM, 72 hours, run 0529-10 min, read-out: viability (survival rate) of 786-O cells",66.5%
same,viability at 10 µM,"[9]; 786-0, 10 μM, 72 hours, run 0531-10 min, read-out: viability (survival rate) of 786-O cells",112%
same,viability at 10 µM,"[9]; 786-0, 72 h, 10 μM, average of 4 tests, read-out: average viability of 786-O cells",86.8%
same,viability at 10 µM,"[9]; 786-0, 72 h, 10 μM, summary (786-O), read-out: Inhibitory effect, Kidney cancer",86.8%
